Laboratory results: patent US12478607B2, “Compounds useful for inhibiting BFL1 and their use in therapy” (CHILDREN'S HOSPITAL MEDICAL CENTER, priority 2019, dated 2025)

What was measured:
[1] = target: BCL2A1 (purified A1) (Mus musculus (Mouse), UniProt Q07440); experiment: differential scanning fluorimetry (DSF) thermal shift assay; format: binding, murine; conditions: 100 μM compound, 4.4 μM A1, triplicate; for ΔTm at 100 µM: read-out: Average Tm Shift
Description: Thermal shift assays and fluorescence polarization competition assays were used to identify compounds that bind to BCL2A1/BFL1. Compounds were first tested for binding to BCL2A1 using differential scanning fluorimetry (DSF) thermal shift assays. DSF measures the midpoint temperature (Tm) for thermal denaturation of proteins; typically ligand binding stabilizes the protein fold, resulting in an increased Tm. During DSF experiments, all compounds that contributed to an increase in Tm that corresponded to at least three standard deviations from the mean were included in further assays.
100 μM of each compound was applied to purified A1 at 4.4 μM in triplicate. Sypro Orange dye was added at a final dilution of 1:1000 to protein- and compound-containing wells. An Applied Biosystems StepOnePlus was used to perform Differential Scanning Fluorimetry (DSF) by elevating the temperature from 20° C. to 99° C. and measuring fluorescence at every half degree C. Melting temperature was recorded as the maximum of the first derivative, indicating half of the protein population was unfolded.

[2] = target: T1, BCL2A1 (A1) (Mus musculus (Mouse), UniProt Q07440); experiment: single high-dose fluorescence polarization (FP) assay, BCL2A1-NOXA interaction; format: binding, murine; conditions: 100 μM compound, 3 μM A1, 375 nM labeled mNOXA
T1 sequence (Q07440 whole entry): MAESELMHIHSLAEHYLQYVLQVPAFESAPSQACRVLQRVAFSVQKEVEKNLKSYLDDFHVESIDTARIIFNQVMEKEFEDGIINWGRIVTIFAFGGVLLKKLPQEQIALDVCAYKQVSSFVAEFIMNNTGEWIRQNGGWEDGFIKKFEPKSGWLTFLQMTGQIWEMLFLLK
Procedure: (§1) These assays were carried out using fluorescently labeled NOXA peptide which binds within the BH3-binding groove. The FP assay measures the tumbling rate of the labeled NOXA peptide as a proxy for inhibition of BH3 binding using a competition-based approach. When NOXA is bound to BCL2A1, its rate of tumbling is low (and FP is high), whereas an effective inhibitor compound will displace NOXA, causing a fast rate of tumbling (and low FP value). The initial single high dose assay was performed with each compound using […] with BCL2A1 and FITC-NOXA, to observe the relative inhibition of the BCL2A1-NOXA interaction. Small molecules that deviated by three or more standard deviations from the control mean towards inhibition of binding were selected for further analysis. These compounds and any that were three standard deviations or more above the thermal shift controls in the DSF assays were tested in an FP dose-response experiment. […] The average thermal shift (Tm shift) in the DSF assay, along with the percentage of bound Noxa peptide from the single high dose FP assay are given below in Table 2 for each of these compounds. The first two compounds in Table 2 are reference compounds.
(§2) Compounds were additionally tested for specificity of binding by displacement of FITC-labeled mouse NOXA (mNoxa; Peptide 2.0) peptide via fluorescence polarization assay (FP). FP assays were performed in two steps: single-point high-concentration compounds and dose response of fluorescence polarization hits. A1 was added at 3 μM to 100 μM of each compound in 20 mM Tris pH 7, 500 mM NaCl, 0.005% Tween-20 buffer. After addition of 375 nM labeled mNOXA, 96-well plates were incubated overnight at 20° C. in the dark to achieve equilibrium before fluorescence polarization was measured with a Biotek Synergy H2. Autofluorescent compounds and fluorescent quenching compounds were corrected via ratiometric correction as described by Shapiro et al., 2009.

[3] = target: T1, BCL2A1 (A1); experiment: dose-response fluorescence polarization (FP) assay, displacement of FITC-labeled mNOXA peptide; format: binding, murine; conditions: 3 μM A1, 375 nM FITC-labeled mNOXA, overnight 20° C., triplicate
Procedure: as §1, §2
Dose response curves were measured by adding 3 μM A1 to a serial two-fold dilution series of each compound ranging from 400 μM to 781 nM in 20 mM Tris pH 7, 500 mM NaCl, 0.005% Tween-20 buffer. Some compounds were further tested to assess the accuracy of these two-fold dilutions with serial 1.33-fold dilutions. A1, compounds, buffer and lastly, 375 nM FITC-labeled mNOXA were added to each well and incubated in the dark at 20° C. overnight to achieve equilibrium, followed by measurement of polarization. All dose responses were performed in triplicate.

[4] = system: wild-type activated primary murine T cells (splenocytes); experiment: in vitro apoptosis assay, wild-type activated primary murine T cells; format: cell-based; conditions: Mus musculus, T-cell, 24 hours, trypan blue live/dead count
Description: (§3) We further tested the biological activity of the compounds using an in vitro apoptosis assay. Primary murine splenocyte cells were used as the model system. Single cell suspensions were generated from the spleens of either wild-type (WT) mice or mice having a genetic “knock-out” of the Bax and Bak genes, resulting in Bax/Bak deficient mice (Bax/Bak KO) which lack the core machinery of the intrinsic apoptotic pathway. Mice deficient in Bax/Bak are unable to undergo intrinsic apoptosis due to the lack of the pro-apoptotic Bax and Bak proteins in the pathway.
(§4) Purified cells were cultured on anti-CD3 coated (3 μg/mL, coated overnight, Biolegend, San Diego, CA) six-well plates in the presence of soluble anti-CD28 (2 μg/mL, Bio X Cell, West Lebanon, NH) and IL-2 (10 ng/mL, R&D Systems, Inc., Minneapolis, MN) in RPMI media (Life Technologies, Carlsbad, CA) for 24 hours at 37° C. Cells were then washed and cultured again in IL-2 (10 ng/mL) for 24 hours at 37° C. Cells were harvested and cultured for 24 hours on anti-CD3 coated 96-well plates at 500,000 cells per well with 2 μg/mL soluble anti-CD28, 10 ng/mL IL-2, 0.125 μg purified anti-mouse FasL (Biolegend, San Diego, CA), and varying concentrations of inhibitor compounds. Cells were then harvested and live and dead cells enumerated by trypan blue staining using the TC20 automated cell counter (Bio-Rad Laboratories, Des Plaines, IL).

[5] = system: T cells from Bax/Bak-deficient mice (Bax/Bak KO); experiment: in vitro apoptosis assay, Bax/Bak-deficient murine T cells; format: cell-based, mouse
Description: as §3, §4

Sequence of BCL2A1 (purified A1) (Q07440 whole entry): as above

Compound	Average Tm Shift [1]	% Bound Noxa (from high-dose FP) [2]	IC50 [3]	ΔTm at 100 µM [1]	EC50 [4]	EC50 fold higher in Bax/Bak-deficient cells than in wild-type cells ([5]; Bax/Bak-deficient versus wild-type T cells)	EC50 ([5]; Mus musculus, T-cell, Bax/Bak-deficient T cells, 24 hours, trypan blue live/dead count, read-out: EC50 of cell death)
CCN(CC)CC(O)CNc1ccc(C)c2sc3ccccc3c(=O)c12 (stereo not shown) [Compound 1.001]		41.48%	49.1 µM	0.49 °C	~3 µM	about 10 fold	20 to 30 µM
CCN(CCNc1ccc(C)c2sc3ccccc3c(=O)c12)CC(C)(C)O [Compound 1.003]		51.13%	103 µM	-1.43 °C			
CCN(CC)CCNc1ccc(C)c2sc3ccccc3c(=O)c12 [Compound 1.002]		4.5%	70.1 µM	38.8 °C			

Further lines, with some results ahead:

Average Tm Shift [1]	% Bound Noxa (from high-dose FP) [2]	IC50 [3]	ΔTm at 100 µM [1]	Compound	EC50 [4]	EC50 fold higher in Bax/Bak-deficient cells than in wild-type cells ([5]; Bax/Bak-deficient versus wild-type T cells)	EC50 ([5]; Mus musculus, T-cell, Bax/Bak-deficient T cells, 24 hours, trypan blue live/dead count, read-out: EC50 of cell death)
−30.75 °C	1.2%			Cc1ccc(NC(=O)c2cc3ccccc3c(N=Nc3cc(S(=O)(=O)O)ccc3O)c2O)c(C)c1 [REF 2, reference compound]			
		300 µM	-0.6 °C	Cc1ccc(NCCNCC(O)CO)c2c(=O)c3ccccc3sc12 (stereo not shown) [Compound 1.004]			
	70.39%	48.5 µM	19.2 °C	O=C(COc1c(Cl)cc(Cl)c2ccccc12)NC1c2ccccc2Oc2ccccc21 [Compound 1.006]			
1.92 °C				Cc1cc(N=Nc2ccc(N=Nc3c(O)c(S(=O)(=O)O)cc4cc(S(=O)(=O)O)ccc34)cc2C)ccc1N=Nc1ccc2cc(S(=O)(=O)O)cc(S(=O)(=O)O)c2c1 [REF 1, reference compound]			
		333 µM	-0.85 °C	Cc1ccc(NCCNCC(C)(C)O)c2c(=O)c3ccccc3sc12 [Compound 1.005]			
